{
  "source": "patent US20250049029A1",
  "about": "“Agrochemical Compositions” (priority 2021, published 2025)",
  "key": {"[1]": {"assay": "Micrographic check for crystals after combining active ingredient with permeable S-metolachlor capsule suspension", "type": "physicochemical", "protocol": "During further testing, Composition 2 was made with metribuzin being the only active ingredient (i.e., S-metolachlor and mesotrione were not present). An image, at 50-micron scale bar, is provided at FIG. 4A. To this formulation, the capsule suspension used in Composition 2 was added.\nFurther testing was done by replacing the metribuzin with sulfentrazone. In these tests sulfentrazone technical (powder, Dv(95)=307 microns) was added to a composition the CS of Composition 2 at a ratio of S-metolachlor:sulfentrazone of 10:0.8, and mixed for 1 hour at 30° C. to provide additional solubilization over room temperature."}, "[2]": {"assay": "Particle size and wet sieve residue of S-metolachlor CS mixed with sulfentrazone technical", "type": "physicochemical", "conditions": "single component, before mixing", "protocol": "Additional testing was done using two jars with S-metolachlor CS of Composition 2 and 8% sulfentrazone technical at a ratio of […]. One was mixed at room temperature and one at 30° C. for 1 hour."}},
  "data": [
    {"smiles": "CSc1nnc(C(C)(C)C)c(=O)n1N", "note": "[metribuzin, Metribuzin]", "values": [
      {"measurement": "metribuzin crystals visible", "setting": "[1]; Composition 2 made with metribuzin as only active ingredient, after adding the capsule suspension used in Composition 2, FIG. 4B", "value": "no metribuzin crystals appeared visible"}
    ]},
    {"smiles": "Cc1nn(-c2cc(NS(C)(=O)=O)c(Cl)cc2Cl)c(=O)n1C(F)F", "note": "[sulfentrazone, Sulfentrazone]", "values": [
      {"measurement": "sulfentrazone crystals observed", "setting": "[1]; sulfentrazone technical added to CS of Composition 2, S-metolachlor:sulfentrazone 10:0.8, mixed 1 hour at 30° C., FIG. 5", "value": "no sulfentrazone crystals were observed"},
      {"measurement": "Dv(95)", "setting": "[1]; sulfentrazone technical powder, before addition", "value": 307, "unit": "microns"},
      {"measurement": "Dv(50)", "setting": "[2]", "value": 30.3},
      {"measurement": "Dv(95)", "setting": "[2]", "value": 307}
    ]}
  ]
}
